Measured values published in US11370803B2, “Heteroaryl plasma kallikrein inhibitors” (Takeda Pharmaceutical Company Limited, priority 2019, dated 2022).

Each compound was assayed against human activated kallikrein enzyme (Homo sapiens (Human), UniProt P03952) (assay: Inhibition of human activated plasma kallikrein, fluorogenic peptide substrate assay (500 pM enzyme format)). Conditions: 500 pM activated kallikrein, 300 uM Pro-Phe-Arg-7-amido-4-methylcoumarin substrate, 30 min preincubation, 10 min reaction at RT; read-out: Primary Dose Response Assay: Average EC50.
human activated kallikrein enzyme, sequence (P03952 391-638): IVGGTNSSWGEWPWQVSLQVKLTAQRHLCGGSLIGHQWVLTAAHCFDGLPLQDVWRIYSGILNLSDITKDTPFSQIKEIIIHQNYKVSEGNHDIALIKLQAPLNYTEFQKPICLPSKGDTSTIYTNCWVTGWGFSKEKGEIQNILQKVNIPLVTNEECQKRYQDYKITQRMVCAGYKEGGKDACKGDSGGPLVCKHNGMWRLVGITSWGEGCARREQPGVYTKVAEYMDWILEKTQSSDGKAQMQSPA
human activated kallikrein enzyme, sequence (P03952 20-390 partner): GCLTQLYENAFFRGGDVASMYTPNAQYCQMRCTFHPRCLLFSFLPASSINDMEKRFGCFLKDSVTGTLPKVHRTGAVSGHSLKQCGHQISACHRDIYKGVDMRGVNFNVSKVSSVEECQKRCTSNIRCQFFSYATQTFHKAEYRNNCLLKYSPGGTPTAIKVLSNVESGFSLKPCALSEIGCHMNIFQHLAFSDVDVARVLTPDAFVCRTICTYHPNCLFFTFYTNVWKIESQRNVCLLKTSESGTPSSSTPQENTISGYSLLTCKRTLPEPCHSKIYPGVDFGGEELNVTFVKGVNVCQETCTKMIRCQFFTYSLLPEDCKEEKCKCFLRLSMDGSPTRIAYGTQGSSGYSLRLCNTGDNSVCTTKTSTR
Type: biochemical
Protocol: Inhibitory Activity of Exemplary Compounds against Plasma Kallikrein. Example compounds were evaluated for inhibition of the human activated kallikrein enzyme in two formats of an assay employing a fluorogenic peptide substrate. In one assay format, the concentrations of reagents were as follows: 20 mM Tris pH 7.5, 1 mM EDTA, 150 mM sodium chloride, 0.1% PEG-400, 0.1% Triton X-100, 500 pM activated kallikrein enzyme, 300 uM Pro-Phe-Arg-7-amido-4-methylcoumarin substrate. Prior to reaction initiation with substrate, enzyme and inhibitors were preincubated for 30 min at RT. After initiation with substrate, reactions were incubated for 10 min at RT and fluorescence emission at 460 nm from 380 nm excitation measured with a microplate reader. In another assay format, the concentrations of reagents were as follows: 20 mM Tris pH 7.5, 1 mM EDTA, 150 mM sodium chloride, 0.1% PEG-400, 0.1% Triton X-100, 5 pM activated kallikrein enzyme, 300 uM Pro-Phe-Arg-7-amido-4-methylcoumarin substrate. Prior to reaction initiation with substrate, enzyme and inhibitors were preincubated for 30 min at RT. After initiation with substrate, reactions were incubated for 18 h at RT and fluorescence emission at 460 nm from 380 nm excitation measured with a microplate reader.
Table 1 provides the results of the assay in the format with 500 pM activated kallikrein assay. For the compounds listed in Table 1, the EC50 values are reported according to the following ranges: A≤50 nM; 50 nM<B≤200 nM; 200 nM<C≤1000 nM; 1000 nM<D.

EC50 [nM] | SMILES
≤ 50 | O=C(Cc1ncn2ccc(Cl)cc12)NCc1cn(Cc2cn3cc(C4CC4)ccc3n2)nn1 [Compound I-1, 2-(7-chloroimidazo[1,5-a]pyridin-1-yl)-N-((1-((6-cyclopropylimidazo[1,2-a]pyridin-2-yl)methyl)-1H-1,2,3-triazol-4-yl)methyl)acetamide]
> 1000 | Fc1c(Cl)ccn2cnc(C(NCc3cn(Cc4cn5cc(C6CC6)ccc5n4)nn3)C(F)(F)F)c12 (stereo not drawn) [Compound I-2, 1-(7-chloro-8-fluoroimidazo[1,5-a]pyridin-1-yl)-N-((1-((6-cyclopropylimidazo[1,2-a]pyridin-2-yl)methyl)-1H-1,2,3-triazol-4-yl)methyl)-2,2,2-trifluoroethan-1-amine]
50 to 200 | O=C(NCc1cn(Cc2cn3cc(C4CC4)ccc3n2)nn1)c1ncn2ccc(Cl)c(F)c12 [Compound I-3, 7-chloro-N-((1-((6-cyclopropylimidazo[1,2-a]pyridin-2-yl)methyl)-1H-1,2,3-triazol-4-yl)methyl)-8-fluoroimidazo[1,5-a]pyridine-1-carboxamide]
200 to 1000 | O=S(=O)(NCc1ncn2ccc(Cl)c(F)c12)c1cnn(Cc2cn3cc(C4CC4)ccc3n2)c1 [Compound I-4, N-((7-chloro-8-fluoroimidazo[1,5-a]pyridin-1-yl)methyl)-1-((6-cyclopropylimidazo[1,2-a]pyridin-2-yl)methyl)-1H-pyrazole-4-sulfonamide]
200 to 1000 | O=S(=O)(NCc1ncn2ccc(Cl)c(F)c12)c1cn(Cc2cn3cc(C4CC4)ccc3n2)nn1 [Compound I-5, N-((7-chloro-8-fluoroimidazo[1,5-a]pyridin-1-yl)methyl)-1-((6-cyclopropylimidazo[1,2-a]pyridin-2-yl)methyl)-1H-1,2,3-triazole-4-sulfonamide]
≤ 50 | O=S(=O)(NCc1cn(Cc2cn3cc(C4CC4)ccc3n2)nn1)c1ncn2ccc(Cl)c(F)c12 [Compound I-6, 7-chloro-N-((1-((6-cyclopropylimidazo[1,2-a]pyridin-2-yl)methyl)-1H-1,2,3-triazol-4-yl)methyl)-8-fluoroimidazo[1,5-a]pyridine-1-sulfonamide]
≤ 50 | CC(NS(=O)(=O)c1ncn2ccc(Cl)c(F)c12)c1cn(Cc2cn3cc(C4CC4)ccc3n2)nn1 (stereo not drawn) [Compound I-7, 7-chloro-N-(1-(1-((6-cyclopropylimidazo[1,2-a]pyridin-2-yl)methyl)-1H-1,2,3-triazol-4-yl)ethyl)-8-fluoroimidazo[1,5-a]pyridine-1-sulfonamide]
≤ 50 | O=C(NCc1ncn2ccc(Cl)c(F)c12)c1cn2c(n1)CCC2c1cn2cc(C3CC3)ccc2n1 (stereo not drawn) [Compound I-8, N-((7-chloro-8-fluoroimidazo[1,5-a]pyridin-1-yl)methyl)-5-(6-cyclopropylimidazo[1,2-a]pyridin-2-yl)-6,7-dihydro-5H-pyrrolo[1,2-a]imidazole-2-carboxamide]
200 to 1000 | O=C(NCc1ncn2ccc(Cl)c(F)c12)c1cnc2n1C(c1cn3cc(C4CC4)ccc3n1)CC2 (stereo not drawn) [Compound I-9, N-((7-chloro-8-fluoroimidazo[1,5-a]pyridin-1-yl)methyl)-5-(6-cyclopropylimidazo[1,2-a]pyridin-2-yl)-6,7-dihydro-5H-pyrrolo[1,2-a]imidazole-3-carboxamide]
≤ 50 | N#Cc1ccn2cnc(CNC(=O)c3cnn(Cc4cn5cc(C6CC6)ccc5n4)c3)c2c1 [Compound I-10, N-((7-cyanoimidazo[1,5-a]pyridin-1-yl)methyl)-1-((6-cyclopropylimidazo[1,2-a]pyridin-2-yl)methyl)-1H-pyrazole-4-carboxamide]
≤ 50 | Fc1c(Cl)ccn2cnc(CNCc3cn(Cc4cn5cc(C6CC6)ccc5n4)nn3)c12 [Compound I-11, 1-(7-chloro-8-fluoroimidazo[1,5-a]pyridin-1-yl)-N-((1-((6-cyclopropylimidazo[1,2-a]pyridin-2-yl)methyl)-1H-1,2,3-triazol-4-yl)methyl)methanamine]
50 to 200 | CC(NCc1ncn2ccc(Cl)c(F)c12)c1cn(Cc2cn3cc(C4CC4)ccc3n2)nn1 (stereo not drawn) [Compound I-12, N-((7-chloro-8-fluoroimidazo[1,5-a]pyridin-1-yl)methyl)-1-(1-((6-cyclopropylimidazo[1,2-a]pyridin-2-yl)methyl)-1H-1,2,3-triazol-4-yl)ethan-1-amine]
≤ 50 | CC(NC(=O)Cc1ncn2ccc(Cl)cc12)c1cn(Cc2cn3cc(C4CC4)ccc3n2)nn1 (stereo not drawn) [Compound I-13, 2-(7-chloroimidazo[1,5-a]pyridin-1-yl)-N-(1-(1-((6-cyclopropylimidazo[1,2-a]pyridin-2-yl)methyl)-1H-1,2,3-triazol-4-yl)ethyl)acetamide]
≤ 50 | COC(=O)c1cc(C2CC2)cn2cc(Cn3cc(CNCc4ncn5ccc(Cl)c(F)c45)nn3)nc12 [Compound I-14, Methyl 2-((4-((((7-chloro-8-fluoroimidazo[1,5-a]pyridin-1-yl)methyl)amino)methyl)-1H-1,2,3-triazol-1-yl)methyl)-6-cyclopropylimidazo[1,2-a]pyridine-8-carboxylate]
200 to 1000 | O=C(O)c1cc(C2CC2)cn2cc(Cn3cc(CNCc4ncn5ccc(Cl)c(F)c45)nn3)nc12 [Compound I-15, 2-((4-((((7-chloro-8-fluoroimidazo[1,5-a]pyridin-1-yl)methyl)amino)methyl)-1H-1,2,3-triazol-1-yl)methyl)-6-cyclopropylimidazo[1,2-a]pyridine-8-carboxylic Acid]
≤ 50 | Fc1c(Cl)ccn2cnc(CNC(c3cnn(Cc4cn5cc(C6CC6)ccc5n4)c3)C(F)(F)F)c12 (stereo not drawn) [Compound I-16, N-((7-chloro-8-fluoroimidazo[1,5-a]pyridin-1-yl)methyl)-1-(1-((6-cyclopropylimidazo[1,2-a]pyridin-2-yl)methyl)-1H-pyrazol-4-yl)-2,2,2-trifluoroethan-1-amine]
≤ 50 | CCOC(=O)CCc1cc(C2CC2)cn2cc(Cn3cc(CNCc4ncn5ccc(Cl)c(F)c45)nn3)nc12 [Compound I-17a, Ethyl 3-(2-((4-((((7-chloro-8-fluoroimidazo[1,5-a]pyridin-1-yl)methyl)amino)methyl)-1H-1,2,3-triazol-1-yl)methyl)-6-cyclopropylimidazo[1,2-a]pyridin-8-yl)propanoate]
≤ 50 | O=C(O)CCc1cc(C2CC2)cn2cc(Cn3cc(CNCc4ncn5ccc(Cl)c(F)c45)nn3)nc12 [Compound I-17b, 3-(2-((4-((((7-chloro-8-fluoroimidazo[1,5-a]pyridin-1-yl)methyl)amino)methyl)-1H-1,2,3-triazol-1-yl)methyl)-6-cyclopropylimidazo[1,2-a]pyridin-8-yl)propanoic acid]
≤ 50 | Fc1c(Cl)ccn2cnc(CNCc3cn(Cc4cn5cc(C6CC6)cc(-n6cnnc6)c5n4)nn3)c12 [Compound I-18, 1-(7-chloro-8-fluoroimidazo[1,5-a]pyridin-1-yl)-N-((1-((6-cyclopropyl-8-(4H-1,2,4-triazol-4-yl)imidazo[1,2-a]pyridin-2-yl)methyl)-1H-1,2,3-triazol-4-yl)methyl)methanamine]
50 to 200 | O=C(Cc1ncn2ccc(Cl)cc12)NC(c1cnn(Cc2cn3cc(C4CC4)ccc3n2)c1)C(F)(F)F (stereo not drawn) [Compound I-19, 2-(7-chloroimidazo[1,5-a]pyridin-1-yl)-N-(1-(1-((6-cyclopropylimidazo[1,2-a]pyridin-2-yl)methyl)-1H-pyrazol-4-yl)-2,2,2-trifluoroethyl)acetamide]
≤ 50 | CN1CCN(c2cc(C3CC3)cn3cc(Cn4cc(C(=O)NCc5ncn6ccc(Cl)c(F)c56)nn4)nc23)CC1 [Compound I-20, N-((7-chloro-8-fluoroimidazo[1,5-a]pyridin-1-yl)methyl)-1-((6-cyclopropyl-8-(4-methylpiperazin-1-yl)imidazo[1,2-a]pyridin-2-yl)methyl)-1H-1,2,3-triazole-4-carboxamide]
